Results published in article PMC10967972, “Different Coactivator Recruitment to Human PPARα/δ/γ Ligand-Binding Domains by Eight PPAR Agonists to Treat Nonalcoholic Fatty Liver Disease” (Biomedicines, 2024).
Read-outs that look alike come from different tables or passages of the source.

Tests used:
Assay type in all cases: biochemical
human PPARγ-LBD = molecular target: T1, human PPARγ-LBD (Homo sapiens, UniProt P37231); assay: TR-FRET coactivator recruitment assay, PPARγ-LBD; details: for Approximate potency order in the recruitment of four coactivators, PPARγ: evaluated based on EC50 values, PGC, PGC1α, SRC, SRC1, TRAP, TRAP220
T1 construct: PPARγ-LBD (AAs 203–477 in isoform 1); made in house
T1 sequence (P37231 203-477 isoform P37231-2): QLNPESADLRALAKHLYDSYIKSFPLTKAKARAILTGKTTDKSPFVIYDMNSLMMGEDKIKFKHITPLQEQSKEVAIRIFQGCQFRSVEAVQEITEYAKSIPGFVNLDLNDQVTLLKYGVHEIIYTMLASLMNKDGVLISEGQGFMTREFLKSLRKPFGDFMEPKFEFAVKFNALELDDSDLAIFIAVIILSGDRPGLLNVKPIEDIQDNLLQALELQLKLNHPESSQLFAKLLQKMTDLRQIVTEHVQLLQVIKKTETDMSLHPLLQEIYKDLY

human PPARδ-LBD = molecular target: T2, human PPARδ-LBD (Homo sapiens, UniProt Q03181); assay: TR-FRET coactivator recruitment assay, PPARδ-LBD; details: for EC50: Buffer A; for Approximate potency order in the recruitment of four coactivators, PPARδ: evaluated based on EC50 values, PGC, PGC1α, SRC, SRC1, TRAP, TRAP220
T2 construct: PPARδ-LBD (AAs 170–441); made in house
T2 sequence (Q03181 170-441): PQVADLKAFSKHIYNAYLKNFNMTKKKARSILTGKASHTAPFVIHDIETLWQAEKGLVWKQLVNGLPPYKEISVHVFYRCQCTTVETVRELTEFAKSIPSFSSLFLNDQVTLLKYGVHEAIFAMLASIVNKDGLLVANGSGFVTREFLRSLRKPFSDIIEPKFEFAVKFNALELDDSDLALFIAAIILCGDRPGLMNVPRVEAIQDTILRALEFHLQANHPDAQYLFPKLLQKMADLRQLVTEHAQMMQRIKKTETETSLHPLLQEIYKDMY

human PPARα-LBD = molecular target: T3, human PPARα-LBD (Homo sapiens, UniProt Q07869); assay: TR-FRET coactivator recruitment assay, PPARα-LBD; details: for EC50: Buffer A; for Approximate potency order in the recruitment of four coactivators, PPARα: evaluated based on EC50 values, PGC, PGC1α, SRC, SRC1, TRAP, TRAP220
T3 construct: Human PPARα-LBD [amino acids (AAs) 200–468]; made in house
T3 sequence (Q07869 200-468): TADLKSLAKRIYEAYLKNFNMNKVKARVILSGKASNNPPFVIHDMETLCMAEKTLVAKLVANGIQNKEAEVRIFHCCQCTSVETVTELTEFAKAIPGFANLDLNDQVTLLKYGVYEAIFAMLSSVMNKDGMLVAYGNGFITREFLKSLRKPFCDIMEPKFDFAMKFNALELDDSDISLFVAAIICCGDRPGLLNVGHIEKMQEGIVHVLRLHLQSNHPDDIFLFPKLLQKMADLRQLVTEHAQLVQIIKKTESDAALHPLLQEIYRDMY

[1] = CBP peptide recruitment, Buffer A, read-out: PPARγ CBP EC50
[2] = PGC1α peptide recruitment, Buffer A, read-out: PPARγ PGC1α EC50
[3] = SRC1 peptide recruitment, Buffer A, read-out: PPARγ SRC1 EC50
[4] = TRAP220 peptide recruitment, Buffer A, read-out: PPARγ TRAP220 EC50
[5] = read-out: PPARγ CBP % of GW1929 max response
[6] = read-out: PPARγ PGC1α % of GW1929 max response
[7] = read-out: PPARγ SRC1 % of GW1929 max response
[8] = read-out: PPARγ TRAP220 % of GW1929 max response
[9] = read-out: PPARδ CBP % of GW501516 max response
[10] = read-out: PPARδ PGC1α % of GW501516 max response
[11] = read-out: PPARδ TRAP220 % of GW501516 max response
[12] = CBP peptide recruitment, read-out: PPARα CBP EC50
[13] = PGC1α peptide recruitment, read-out: PPARα PGC1α EC50
[14] = SRC1 peptide recruitment, read-out: PPARα SRC1 EC50
[15] = TRAP220 peptide recruitment, read-out: PPARα TRAP220 EC50
[16] = read-out: PPARα CBP % of GW7647 max response
[17] = read-out: PPARα PGC1α % of GW7647 max response
[18] = read-out: PPARα SRC1 % of GW7647 max response
[19] = read-out: PPARα TRAP220 % of GW7647 max response
[20] = read-out: PPARδ SRC1 % of GW501516 max response

Row | Molecule | EC50 (human PPARγ-LBD; [1]) [µM] | EC50 (human PPARγ-LBD; [2]) [µM] | EC50 (human PPARγ-LBD; [3]) [µM] | EC50 (human PPARγ-LBD; [4]) [µM] | Approximate potency order in the recruitment of four coactivators, PPARγ (human PPARγ-LBD) | Emax (human PPARγ-LBD; [5]) [%] | Emax (human PPARγ-LBD; [6]) [%] | Emax (human PPARγ-LBD; [7]) [%] | Emax (human PPARγ-LBD; [8]) [%] | Approximate potency order in the recruitment of four coactivators, PPARδ (human PPARδ-LBD) | Emax (human PPARδ-LBD; [9]) [%] | Emax (human PPARδ-LBD; [10]) [%] | Emax (human PPARδ-LBD; [11]) [%] | EC50 (human PPARα-LBD; [12]) [µM] | EC50 (human PPARα-LBD; [13]) [µM] | Approximate potency order in the recruitment of four coactivators, PPARα (human PPARα-LBD) | Emax (human PPARα-LBD; [16]) [%] | Emax (human PPARα-LBD; [17]) [%] | Emax (human PPARα-LBD; [18]) [%] | Emax (human PPARα-LBD; [19]) [%] | also measured
1 | CCO[C@@H](Cc1ccc(OCCn2c(C)ccc2-c2ccc(SC)cc2)cc1)C(=O)O [Saroglitazar, saroglitazar] | 1.87 | 2.46 | 5.55 | 8.43 | CBP>PGC>TRAP=SRC | 85 | 50.1 | 40 | 52.4 | Faint activation | 6.72 | 8.94 | 2.5 | 0.28 | 0.761 | CBP>TRAP>PGC=SRC | 80.2 | 58.3 | 54.2 | 64.2 | EC50 (human PPARδ-LBD; CBP peptide recruitment, read-out: PPARδ CBP EC50): > 100 µM; EC50 (human PPARδ-LBD; PGC1α peptide recruitment, read-out: PPARδ PGC1α EC50): 3.91 µM; EC50 (human PPARδ-LBD; SRC1 peptide recruitment, read-out: PPARδ SRC1 EC50): > 100 µM; EC50 (human PPARδ-LBD; TRAP220 peptide recruitment, read-out: PPARδ TRAP220 EC50): > 100 µM; EC50 (human PPARα-LBD; [14]): 0.814 µM; EC50 (human PPARα-LBD; [15]): 0.674 µM
2 | CCc1ccc(CCOc2ccc(CC3SC(=O)NC3=O)cc2)nc1 (centres unmarked) [Pioglitazone, pioglitazone] | – | – | – | – | – | – | – | – | – | No activation | 2.47 | 4.53 | 1.55 | – | – | CBP>>>PGC=SRC=TRAP | 34.9 | 13.9 | 8.37 | 3.67 | Emax (human PPARδ-LBD; [20]): 1.19%
3 | GW1929 | – | – | – | – | – | – | – | – | – | – | – | – | – | – | – | – | – | – | – | – | PPARγ CBP maximal fold-induction of basal levels (human PPARγ-LBD; CBP peptide, fold over no ligand): 14.7 ×; PPARγ PGC1α maximal fold-induction of basal levels (human PPARγ-LBD; PGC1α peptide, fold over no ligand): 11.9 ×; PPARγ SRC1 maximal fold-induction of basal levels (human PPARγ-LBD; SRC1 peptide, fold over no ligand): 12.6 ×; PPARγ TRAP220 maximal fold-induction of basal levels (human PPARγ-LBD; TRAP220 peptide, fold over no ligand): 15.5 ×; maximal fold-induction from basal (no ligand) levels on the four coactivators, PPARγ (human PPARγ-LBD; range over PGC1α, CBP, SRC1, TRAP220, Buffer A): 11.9–15.5 ×
4 | CSc1ccc(C(=O)/C=C/c2cc(C)c(OC(C)(C)C(=O)O)c(C)c2)cc1 [Elafibranor, elafibranor] | > 10 | > 10 | > 30 | > 10 | PGC=CBP=TRAP>SRC | 36 | 30.8 | 9.11 | 29 | PGC>TRAP>CBP>SRC | 30.8 | 68.5 | 44 | 2.77 | 6.44 | CBP>PGC=SRC=TRAP | 61.6 | 45.6 | 41.6 | 36.2 | recruitment of coactivators to PPARδ-LBD (in words) (human PPARδ-LBD; four coactivator peptides): effective; Emax (human PPARδ-LBD; [20]): 19.9%; EC50 (human PPARα-LBD; [14]): 4.98 µM; EC50 (human PPARα-LBD; [15]): 4.28 µM
